Laboratory results taken from US11046686B2, “Thiadiazole IRAK4 compounds” (Gilead Sciences, Inc., priority 2018, dated 2021).

These molecules were tested on TNFα (assay: IRAK4 Monocyte TNFα Cell Based Assay). Conditions: human monocytes; second part of Table 2, compounds 33-343; unit inferred; read-out: EC50 MONO TNF HTRF.
Design: species or system human
In short: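 Human monocytes (5,000/well) pretreated with compound 1 h at 37 °C (0.1% DMSO final), then stimulated with 50 pg/ml LPS for 4 h. Secreted TNFα measured by TR-FRET two-antibody detection after overnight incubation at room temperature; % control relative to unstimulated and LPS-stimulated wells.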

Row | EC50 | SMILES
1 | 115 nM | CC(=O)N[C@H]1C[C@H]2CC[C@@H](C1)N2c1nnc(-c2cnc(-c3ccc4cc(C#N)cnn34)cc2NC(C)C)s1 [Example 55, N-((1R,3r,5S)-8-(5-(6-(3-cyanopyrrolo[1,2-b]pyridazin-7-yl)-4-(isopropylamino)pyridin-3-yl)-1,3,4-thiadiazol-2-yl)-8-azabicyclo[3.2.1]octan-3-yl)acetamide]
2 | 9.3 nM | CC(C)Nc1cc(-c2ccc3cc(C#N)cnn23)ncc1-c1nnc(N2C[C@H]3CC[C@@H](C2)[C@@H]3NS(C)(=O)=O)s1 [Example 58, N-((1R,5S,8s)-3-(5-(6-(3-cyanopyrrolo[1,2-b]pyridazin-7-yl)-4-(isopropylamino)pyridin-3-yl)-1,3,4-thiadiazol-2-yl)-3-azabicyclo[3.2.1]octan-8-yl)methanesulfonamide]
3 | 16.3 nM | CC(C)Nc1cc(-c2ccc3cc(C#N)cnn23)ncc1-c1nnc(N2CCC(O)(CF)CC2)s1 [Example 189]
4 | 2070 nM | CC(C)Nc1cc(-c2ccc3cc(C#N)cnn23)ncc1-c1nnc(C(=O)N[C@H]2C[C@](C)(O)C2)s1 [Example 219]
5 | 5680 nM | CC(C)Nc1cc(-c2ccc3cc(C#N)cnn23)ncc1-c1nnc(C(=O)N2CC[C@@H](NC(=O)C3CC3)C2)s1 [Example 47]
6 | 4.1 nM | CC(=O)N[C@@H]1[C@@H]2CC[C@H]1CN(c1nnc(-c3cnc(-c4ccc5cc(C#N)cnn45)cc3NC3(C)CCOCC3)s1)C2 [Compound 272, N-((1R,5S,8s)-3-(5-(6-(3-cyanopyrrolo[1,2-b]pyridazin-7-yl)-4-((4-methyltetrahydro-2H-pyran-4-yl)amino)pyridin-3-yl)-1,3,4-thiadiazol-2-yl)-3-azabicyclo[3.2.1]octan-8-yl)acetamide]
7 | 47.4 nM | CC1(Nc2cc(-c3ccc4cc(C#N)cnn34)ncc2-c2nnc(N3CC4CC(C3)N4C(=O)CN=S(C)(C)=O)s2)COC1 [Example 113, 7-(5-(5-(6-(2-((dimethyl(oxo)-16-sulfanylidene)amino)acetyl)-3,6-diazabicyclo[3.1.1]heptan-3-yl)-1,3,4-thiadiazol-2-yl)-4-((3-methyloxetan-3-yl)amino)pyridin-2-yl)pyrrolo[1,2-b]pyridazine-3-carbonitrile]
8 | 5.8 nM | CC(=O)NC1CCC2(CC1)CN(c1nnc(-c3cnc(-c4ccc5cc(C#N)cnn45)cc3NC3(C)COC3)s1)C2 [Example 99]
9 | 6.7 nM | CNc1cc(-c2ccc3cc(C#N)cnn23)ncc1-c1nnc(N2C[C@H]3CC[C@@H](C2)[C@@H]3NC(C)=O)s1 [Example 292, N-((1R,5S,8s)-3-(5-(6-(3-cyanopyrrolo[1,2-b]pyridazin-7-yl)-4-(methylamino)pyridin-3-yl)-1,3,4-thiadiazol-2-yl)-3-azabicyclo[3.2.1]octan-8-yl)acetamide]
10 | 8.9 nM | CC(=O)NC1CCC2(CC1)CN(c1nnc(-c3cnc(-c4ccc5cc(C#N)cnn45)cc3NC3COC3)s1)C2 [Example 78, N-(2-(5-(6-(3-cyanopyrrolo[1,2-b]pyridazin-7-yl)-4-(oxetan-3-ylamino)pyridin-3-yl)-1,3,4-thiadiazo1-2-yl)-2-azaspiro[3.5]nonan-7-yl)acetamide]
11 | 10.4 nM | CC(=O)N1CCC2(CC1)CN(c1nnc(-c3cnc(-c4ccc5cc(C#N)cnn45)cc3NC(C)C)s1)C2 [Example 67, 7-(5-(5-(7-acetyl-2,7-diazaspiro[3.5]nonan-2-yl)-1,3,4-thiadiazo1-2-yl)-4-(isopropylamino)pyridin-2-yl)pyrrolo[1,2-b]pyridazine-3-carbonitrile]
12 | 21.9 nM | COC(=O)N[C@H]1CCN(C(=O)c2nnc(-c3cnc(-c4ccc5cc(C#N)cnn45)cc3NC(C)C)s2)C1 [Example 43, methyl (S)-(1-(5-(6-(3-cyanopyrrolo[1,2-b]pyridazin-7-yl)-4-(isopropylamino)pyridin-3-yl)-1,3,4-thiadiazole-2-carbonyl)pyrrolidin-3-yl)carbarnate]
